Results published in patent US8975288B2 (priority 2013, dated 2015).
pIC50: −log10 of the molar value. ≈ marks a conversion by molar mass, not a printed value. Entries after “also recorded” stand apart in the source; their conditions may differ. Read-outs that look alike come from different tables or passages of the source.

Experiments:
[1] = test system: B. anthracis Sterne (pXO1+, pXO2−); test: microbe, parasite or virus in culture; assay type: cell-based; conditions: Bacillus anthracis
[2] = test system: S. flexneri; test: microbe, parasite or virus in culture; assay type: cell-based; conditions: Shigella flexneri
[3] = test system: E. coli TolC mutant; test: microbe, parasite or virus in culture; assay type: cell-based; conditions: Escherichia coli, read-out: MIC E. coil TolC
[4] = test system: WT B. anthracis Sterne; test: microbe, parasite or virus in culture; assay type: cell-based; conditions: Bacillus anthracis, 24 h, read-out: IC50 WT B. anthracis
[5] = test system: Wild-type M. tuberculosis; test: microbe, parasite or virus in culture; assay type: cell-based; conditions: Mycobacterium tuberculosis, read-out: MIC against M. tuberculosis
[6] = test system: WT+pUTE29 (empty vector); test: microbe, parasite or virus in culture; assay type: cell-based, B. anthracis; conditions: Bacillus anthracis, 24 h, read-out: IC50 WT + pUTE29
[7] = test system: Auto-luminescent M. tuberculosis (LuxTB); test: microbe, parasite or virus in culture; assay type: cell-based; conditions: Mycobacterium tuberculosis, read-out: IC50 M. tuberculosis
[8] = test system: B. anthracis spores; assay type: cell-based
[9] = test system: B. anthracis ΔclpX; test: microbe, parasite or virus in culture; assay type: cell-based; conditions: Bacillus anthracis, 24 h, read-out: IC50 ΔclpX
[10] = test system: ΔclpX+pUTE29; test: microbe, parasite or virus in culture; assay type: cell-based, B. anthracis; conditions: Bacillus anthracis, 24 h, read-out: IC50 ΔclpX + pUTE29
[11] = test system: B. subtilis; test: microbe, parasite or virus in culture; assay type: cell-based; conditions: Bacillus subtilis, 24 h, read-out: MIC B. subtilis
[12] = test system: S. flexneri; test: microbe, parasite or virus in culture; assay type: cell-based; conditions: Shigella flexneri, 24 h, read-out: IC50 S. flexneri
[13] = test system: B. anthracis ΔclpX+pclpX; test: microbe, parasite or virus in culture; assay type: cell-based; conditions: Bacillus anthracis, 24 h, read-out: IC50 ΔclpX + pclpX
[14] = test system: trans-translation; assay type: biochemical, E. coli; conditions: 10 μM final concentration; DHFR template lacking the stop codon; tagging efficiency vs no inhibitor control
[15] = test system: S. aureus methicillin-susceptible strain, Newman; assay type: cell-based
[16] = test system: HeLa cells; conditions: human
[17] = test system: Mycobacterium smegmatis; test: microbe, parasite or virus in culture; assay type: cell-based; conditions: Mycolicibacterium smegmatis, read-out: MIC Mycobacterium smegmatis
[18] = test system: MRSA strain, Sanger 252; assay type: cell-based, S. aureus
[19] = test system: B. anthracis Sterne; assay type: cell-based
[20] = test system: B. anthracis; assay type: cell-based
[21] = 24 h, read-out: MIC B. anthracis
[22] = read-out: MIC Bacillus anthracis
[23] = 24 h, read-out: MIC S. flexneri

Compound: CCCn1nnnc1NC(=O)C1CCCCC1 [Compound 7, N-(1-propyl-1H-tetrazol-5-yl)cyclohexane-carboxamide]
- MIC ([1]; read-out: MIC B. anthracis): > 500 µM
- MIC ([2]; read-out: MIC S. flexneri): > 500 µM

Compound: CN(C)c1cccc2c(S(=O)(=O)NCCn3nnnc3NC(=O)c3cccc(Cl)c3)cccc12 [Dansyl-F2, 3-chloro-N-(1-(2-(5-(dimethylamino)naphthalene-1-sulfonamido)ethyl)-1H-tetrazol-5-yl)benzamide]
- MIC [3]: 25 µM (≈ 12.5 µg/mL)
- pIC50 [4]: 5.28
- MIC [5]: ~50 µM (≈ 25 µg/mL)
- pIC50 [6]: 5.01
- pIC50 ([7]; 48 h): 3.74
- pIC50 ([7]; 72 h): 4.00
- pIC50 ([7]; 96 h): 4.02
- Vegetative cells from spores (inhibition of spore germination) [8]: No vegetative cells were observed
- pIC50 [9]: 5.23
- pIC50 [10]: 5.20
- MIC [11]: 13.3 µM (≈ 6.65 µg/mL)
- MIC [1, 21]: 7.8 µM (≈ 3.9 µg/mL)
- MIC [1, 22]: 5.3 µM (≈ 2.65 µg/mL)
- MIC [2, 23]: > 200 µM
- pIC50 [12]: < 3.70
- pIC50 [13]: 5.21
- % inhibition in vitro [14]: 89.1%

Compound: O=C(NC1CCCC1)c1cccc(Cl)c1 [Compound 13, 3-chloro-N-cyclopentylbenzamide]
- MIC ([1]; read-out: MIC B. anthracis): > 500 µM
- MIC ([2]; read-out: MIC S. flexneri): > 500 µM
- % inhibition in vitro [14]: 71.6%

Compound: O=C(Nc1nnnn1CCNS(=O)(=O)c1ccccc1)c1cccc(Cl)c1 [Compound 16, 3-chloro-N-(1-(2-(phenylsulfonamido)ethyl)-1H-tetrazol-5-yl)benzamide]
- MIC [1, 22]: 400 µM (≈ 163 µg/mL)
- % inhibition in vitro [14]: 37.0%

Compound: CCCn1nnnc1NC(=O)c1cccc(Cl)c1 [Compound F2, reference compound]
- MIC [3]: 12.5 µM (≈ 3.32 µg/mL)
- pIC50 [4]: 4.75
- pIC50 [6]: 4.56
- Survival of S. aureus Newman [15]: only slightly reduced; also recorded: No colonies were recovered
- Dose at which cytotoxicity in mammalian cells is seen [16]: 500 to 1000 µM
- pIC50 ([7]; 48 h): 3.53
- pIC50 ([7]; 72 h): 3.65
- pIC50 ([7]; 96 h): 3.94
- Vegetative cells from spores (inhibition of spore germination) [8]: No vegetative cells were observed
- pIC50 [9]: 4.57
- pIC50 [10]: 4.65
- MIC [11]: 26.1 µM (≈ 6.93 µg/mL)
- MIC [17]: 25 µM (≈ 6.64 µg/mL)
- MIC [1, 21]: 31.2 µM (≈ 8.29 µg/mL)
- MIC ([1]; read-out: MIC B. anthracis): 25 µM (≈ 6.64 µg/mL)
- MIC [1, 22]: 25 µM (≈ 6.64 µg/mL)
- Bacterial survival (cfu/ml) of MRSA [18]: significantly reduced bacterial survival in a synergistic manner
- Direct antimicrobial activity against MRSA Sanger 252 [18]: direct antimicrobial activity
- Reduction of survival of MRSA Sanger 252 [18]: at least 10,000 fold
- Survival of MRSA Sanger 252 [18]: only slightly reduced
- MIC [2, 23]: 7.8 µM (≈ 2.07 µg/mL)
- MIC ([2]; read-out: MIC S. flexneri): 3.13 µM (≈ 0.832 µg/mL)
- MIC ([2]; read-out: MIC Shigella flexneri): 3.1 µM (≈ 0.824 µg/mL)
- pIC50 [12]: 5.23
- Bacterial survival (cfu/ml) of B. anthracis Sterne [19]: significantly reduced bacterial survival in a synergistic manner
- Direct antimicrobial activity against B. anthracis Sterne [19]: direct antimicrobial activity
- Survival of B. anthracis Sterne vs vehicle control [19]: negligible effect on survival
- Killing of B. anthracis in human whole blood vs vehicle control [20]: significantly enhanced killing
- pIC50 [13]: 4.83
- % inhibition in vitro [14]: 88.0%

Compound: CCCn1nnnc1NC(=O)C1CCCC1 [Compound 8, N-(1-propyl-1H-tetrazol-5-yl)cyclopentane-carboxamide]
- MIC ([1]; read-out: MIC B. anthracis): > 500 µM
- MIC ([2]; read-out: MIC S. flexneri): > 500 µM

Compound: CCCn1nnnc1NC(=O)c1ccc(N(C)C)cc1 [Compound 4, 4-(dimethylamino)-N-(1-propyl-1H-tetrazol-5-yl)benzamide]
- MIC ([1]; read-out: MIC B. anthracis): > 500 µM
- MIC ([2]; read-out: MIC S. flexneri): > 500 µM
- % inhibition in vitro [14]: 74.9%

Compound: CCCn1nnnc1NC(=O)c1ccccc1 [Compound 1, N-(1-propyl-1H-tetrazol-5-y1)benzamide]
- MIC ([1]; read-out: MIC B. anthracis): > 500 µM
- MIC ([2]; read-out: MIC S. flexneri): > 500 µM

Compound: CCCn1nnnc1NC(=O)c1cccc(Br)c1 [Compound 2, 3-bromo-N-(1-propyl-1H-tetrazol-5-yl)benzamide]
- MIC ([1]; read-out: MIC B. anthracis): > 500 µM
- MIC ([2]; read-out: MIC S. flexneri): 250 µM (≈ 77.5 µg/mL)

Compound: O=C(Nc1ccccc1)c1cccc(Cl)c1 [Compound 10, 3-chloro-N-phenylbenzamide]
- MIC ([1]; read-out: MIC B. anthracis): > 500 µM
- MIC ([2]; read-out: MIC S. flexneri): > 500 µM
- % inhibition in vitro [14]: 68.1%

Compound: O=C(Nc1nnn[nH]1)c1cccc(Cl)c1 [Compound 9]
- % inhibition in vitro [14]: 78.9%

Compound: CCCn1nnnc1NC(=O)c1ccc(N(CC)CC)cc1 [Compound 5, 4-(diethylamino)-N-(1-propyl-1H-tetrazol-5-yl)-benzamide]
- MIC ([1]; read-out: MIC B. anthracis): > 500 µM
- MIC ([2]; read-out: MIC S. flexneri): > 500 µM

Compound: CCCCCCCCCC(=O)N[C@@H](Cc1c[nH]c2ccccc12)C(=O)N[C@H](CC(N)=O)C(=O)N[C@@H](CC(=O)O)C(=O)N[C@@H]1C(=O)NCC(=O)N[C@@H](CCCN)C(=O)N[C@@H](CC(=O)O)C(=O)N[C@H](C)C(=O)N[C@@H](CC(=O)O)C(=O)NCC(=O)N[C@H](CO)C(=O)N[C@@H]([C@H](C)CC(=O)O)C(=O)N[C@@H](CC(=O)c2ccccc2N)C(=O)O[C@@H]1C [daptomycin]
- Effect on parental and complemented B. anthracis strains [19]: not significantly affected

Compound: LL-37
- Survival of S. aureus Newman [15]: only slightly reduced
- Survival of MRSA Sanger 252 [18]: only slightly reduced
- Survival of B. anthracis Sterne vs vehicle control [19]: negligible effect on survival

Compound: CCCn1nnnc1NC(=O)c1cccc(F)c1 [Compound 3, 3-fluoro-N-(1-propyl-1H-tetrazol-5-yl)benzamide]
- MIC ([1]; read-out: MIC B. anthracis): > 500 µM
- MIC ([2]; read-out: MIC S. flexneri): > 500 µM

Compound: NCCn1nnnc1NC(=O)c1cccc(Cl)c1 [Compound D, N-(1-(2-aminoethyl)-1H-tetrazol-5-yl)-3-chlorobenzamide]
- MIC [11]: > 200 µM
- MIC [1, 21]: > 200 µM
- MIC [2, 23]: > 200 µM
- % inhibition in vitro [14]: 52.3%

Compound: O=C(NC1CCCCC1)c1cccc(Cl)c1 [Compound 12, 3-chloro-N-cyclohexylbenzamide]
- MIC ([1]; read-out: MIC B. anthracis): > 500 µM
- MIC ([2]; read-out: MIC S. flexneri): > 500 µM
- % inhibition in vitro [14]: 44.6%

Compound: O=C(Nc1ccncc1)c1cccc(Cl)c1 [Compound 11, 3-chloro-N-(pyridin-4-yl)benzamide]
- MIC ([1]; read-out: MIC B. anthracis): > 500 µM
- MIC ([2]; read-out: MIC S. flexneri): 500 µM (≈ 116 µg/mL)
- % inhibition in vitro [14]: 57.9%

Compound: CS(=O)(=O)NCCn1nnnc1NC(=O)c1cccc(Cl)c1 [Compound 14]
- % inhibition in vitro [14]: 47.8%
